Where two headings read alike, the source gives them in different places.
Columns and labels:
[1] = Acute intravenous toxicity (LD50, method according to MILLER and TAINTER); conditions: mouse, in vivo, Swiss mice, read-out: LD50 /24hrs/kg of the animal
[2] = tested on: Ovalbumin-induced systemic edema; experiment: Ovalbumin-induced systemic edema method (anti-inflammatory action); assay type: in vivo; conditions: Rattus norvegicus, po, rats, 100 mg/kg orally (1 hour prior and simultaneously), with respect to control group
Description: b. Ovalbumin-induced systemic edema method
Rats are administered a simultaneous intraperitoneal injection of 1 ml ovalbumin and 0.5 ml of a 1% Evans Blue solution. The animals of the treated group are additionally administered orally 100 mg/kg of the test derivative, one hour prior to ovalbumin administration and then simultaneously with said ovalbumin administration. The intensity of the phenomenon thus induced is rated according to a scale from 1 to 5, according to the progress of the inflammatory syndrome. The measurements are effected after 2 hours and after 3 hours. Thus are determined the mean intensity of the edema and the percent decrease of the edema reaction with respect to the control group.

[3] = tested on: carrageenin-induced edema; experiment: Localized carrageenin-induced edema method (anti-inflammatory action); assay type: in vivo; conditions: Rattus norvegicus, po, rats, 100 mg/kg orally (1 hour prior, simultaneously, 1 hour and 2.5 hours after)
Description: a. Localized carrageenin-induced edema method.
0.1 ml of a 1% carrageenin solution is injected at time 0 in the metatarsal flexor muscles of the right hind limb of rats. The animals of the treated group are administered orally, additionally, 100 mg/kg of the test derivative, respectively 1 hour prior to and then simultaneously with the phlogogenic agent, and then 1 hour and 2.5 hours thereafter. The determinations effected with a ROCH micrometer at times 0, 1 hour, 2 hrs, 3 hrs and 5 hrs after carrageenin administration make it possible to determine, as a function of time, the percent anti-inflammatory activity.

[4] = tested on: mechanical stimulation (pressure forceps at the base of the tail); experiment: Antalgic action, mechanical stimulation method according to Haffner; assay type: in vivo; conditions: mouse, 100 mg/kg oral
Description: This method comprises placing a pressure forceps at the base of the tail of a mouse and recording the number of bites self-inflicted by the animal in its endeavour to remove the forceps. The decrease of the number of bites prior to and subsequently to oral administration of the test compound at a dosage of 100 mg/kg provides a measure of the antalgic activity of the derivatives of this invention.

[5] = after 2 hrs, read-out: Percent decrease of the edema reaction after 2 hrs
[6] = after 3 hrs, read-out: Percent decrease of the edema reaction after 3 hrs
[7] = after 1 hour, read-out: Percent anti-inflammatory activity after 1 hour
[8] = after 2 hours, read-out: Percent anti-inflammatory activity after 2 hours
[9] = after 5 hours, read-out: Percent anti-inflammatory activity after 5 hours
[10] = 0.5 h, after 30 min., read-out: mean percent antalgia after 30 min.
[11] = after 1 hr, read-out: mean percent antalgia after 1 hr
[12] = after 2 hrs, read-out: mean percent antalgia after 2 hrs
[13] = after 3 hrs, read-out: mean percent antalgia after 3 hrs

Compound	LD50 at 24 h [1]	inhibition in vivo at 100 mg/kg [2, 5]	inhibition in vivo at 100 mg/kg [2, 6]	inhibition in vivo at 100 mg/kg [3, 7]	inhibition in vivo at 100 mg/kg [3, 8]	inhibition in vivo at 100 mg/kg [3, 9]	inhibition in vivo at 100 mg/kg [4, 10]	inhibition in vivo at 100 mg/kg [4, 11]	inhibition in vivo at 100 mg/kg [4, 12]	inhibition in vivo at 100 mg/kg [4, 13]
COC1CNCc2ccsc21 (stereo not shown) [Derivative 1, 7-Methoxy-4,5,6,7-tetrahydro-thieno[3,2-c]-pyridine]	262 mg/kg	51%	60%	35%	41%	50%	75%	63%	59%	51%
CCOC1CNCc2ccsc21 (stereo not shown) [Derivative 2, 7-Ethoxy-4,5,6,7-tetrahydro-thieno[3,2-c]-pyridine]	145 mg/kg	48%	59%	36%	44%	52%	71%	66%	62%	59%
CC(C)COC1CNCc2ccsc21 (stereo not shown) [Derivative 3, 7-Isobutoxy-4,5,6,7-tetrahydro-thieno[3,2-c]-pyridine]	180 mg/kg	51%	63%	39%	48%	58%	68%	60%	55%	48%
c1ccc(COC2CNCc3ccsc32)cc1 (stereo not shown) [Derivative 4, 7-Benzyloxy-4,5,6,7-tetrahydro-thieno[3,2-c]-pyridine]	95 mg/kg	53%	64%	42%	50%	60%	75%	69%	66%	57%
COC1(C)CNCc2ccsc21 (stereo not shown) [Derivative 5, 7-Methoxy-7-methyl-4,5,6,7-tetrahydro-thieno[3,2-c]-pyridine]	138 mg/kg	49%	60%	39%	49%	57%	67%	61%	55%	46%
CCOC1(C)CNCc2ccsc21 (stereo not shown) [Derivative 6, 7-Ethoxy-7-methyl-4,5,6,7-tetrahydro-thieno[3,2-c]-pyridine]	224 mg/kg	44%	58%	40%	49%	61%	66%	60%	55%	48%
COC1c2sccc2CNC1C (stereo not shown) [Derivative 7, 7-Methoxy-6-methyl-4,5,6,7-tetrahydro-thieno[3,2-c]-pyridine]	210 mg/kg	47%	58%	36%	48%	62%	70%	65%	61%	53%
CCOC1c2sccc2CNC1C (stereo not shown) [Derivative 8, 7-Ethoxy-6-methyl-4,5,6,7-tetrahydro-thieno[3,2-c]-pyridine]	129 mg/kg	44%	56%	38%	53%	61%	71%	65%	59%	50%
COC1(C)c2sccc2CNC1C (stereo not shown) [Derivative 9, 6,7-Dimethyl-7-methoxy-4,5,6,7-tetrahydro-thieno[3,2-c]-pyridine]	175 mg/kg	50%	63%	44%	52%	62%	68%	63%	56%	49%
COC1c2sccc2CNC1c1ccccc1 (stereo not shown) [Derivative 10, 7-Methoxy-6-phenyl-4,5,6,7-tetrahydro-thieno[3,2-c]-pyridine]	195 mg/kg	48%	57%	37%	50%	56%	73%	66%	60%	53%

— patent publication US4065460A, “4,5,6,7-Tetrahydro-thieno[3,2-c]-pyridine derivatives and process for their preparation” (Parcor, priority 1975, dated 1977)
